Data on seven compounds can be found in ChEMBL document CHEMBL1150878, “Novel cytotoxic diterpenes, excavatolides A-E, isolated from the Formosan gorgonian Briareum excavatum” (1998).

Type in all cases: functional
What all share (settings): read-out: ED50 (the source's name)

Test [1] concerns KB. The experiment in a line: Cytotoxicity against human KB cells by MTT assay.
Test [2] concerns P388. The experiment in a line: Cytotoxicity against mouse P388 cells by MTT assay.
In test [3] the test system is HT-29. The test can be described thus: Cytotoxicity against human HT-29 cells by MTT assay.
The subject of test [4] is A549. The experiment in a line: Cytotoxicity against human A549 cells by MTT assay.

Structures are written as SMILES. In brackets after ≈: the same amount, converted by molar mass. Bounds are passed on as bounds.

On to `CC(=O)O[C@H]1C[C@H](O)[C@H](C)[C@H]2[C@@]1(C)[C@]1(O)[C@@H](OC(C)=O)C/C(C)=C\[C@@H]3OC(=O)[C@@]4(C)O[C@]34[C@]21OC(C)=O` [EXCAVATOLIDE D], for which the EC50 was 4.2 mg/L (≈ 8.04 µM) in test [1], 1.8 mg/L (≈ 3.44 µM) in test [2], 1.3 mg/L (≈ 2.49 µM) in test [3] and above 50 mg/L in test [4].

Turning to `CCCC(=O)O[C@H]1C/C(C)=C\[C@@H]2OC(=O)[C@@]3(C)O[C@]23[C@]2(OC(C)=O)[C@H]3[C@@H](C)[C@@H](O)C[C@H](OC(C)=O)[C@]3(C)[C@]12OC(C)=O` [EXCAVATOLIDE B], the EC50 in test [1], in test [2], in test [3] and in test [4] was above 50 mg/L each time.

Consider `CC(=O)O[C@H]1C[C@H](O)[C@H](C)[C@H]2[C@@]1(C)[C@]1(OC(C)=O)CC/C(C)=C\[C@@H]3OC(=O)[C@@]4(C)O[C@]34[C@]21O` [EXCAVATOLIDE E], for which the EC50 is 0.8 mg/L (≈ 1.72 µM) in test [1], 1.6 mg/L (≈ 3.44 µM) in test [2], 1.6 mg/L (≈ 3.44 µM) in test [3] and 1.2 mg/L (≈ 2.58 µM) in test [4].

Regarding `CC(=O)O[C@H]1C[C@H](O)[C@H](C)[C@H]2[C@@]1(C)[C@]1(OC(C)=O)[C@@H](OC(C)=O)C/C(C)=C\[C@@H]3OC(=O)[C@@]4(C)O[C@]34[C@]21OC(C)=O` [EXCAVATOLIDE C], the EC50 in test [1] was 1.9 mg/L (≈ 3.37 µM); in test [2], 0.3 mg/L (≈ 0.531 µM); in test [3], 1.9 mg/L (≈ 3.37 µM); in test [4], 1.9 mg/L (≈ 3.37 µM).

As for `CC(=O)O[C@H]1C[C@H](OC(C)=O)[C@@]2(C)[C@H]([C@H]1C)[C@]1(O)[C@@]2(OC(C)=O)CC/C(C)=C\[C@@H]2OC(=O)[C@@]3(C)O[C@@]213`, the EC50 was above 50 mg/L in test [1], 5.8 mg/L (≈ 11.5 µM) in test [2], 4.4 mg/L (≈ 8.69 µM) in test [3] and 37.2 mg/L (≈ 73.4 µM) in test [4].

For the compound `C=C1[C@H]2O[C@H]2[C@@]2(O)[C@@]3(C)[C@H]4O[C@H]4[C@H](OC(C)=O)[C@H](C)[C@@H]3[C@@]2(OC(C)=O)[C@]2(O)[C@@H](C)C(=O)O[C@H]2[C@H]1Cl` [BRIANOLIDE], the EC50 in test [1], in test [2], in test [3] and in test [4] was above 50 mg/L in each case.

Consider `C=C1[C@@H]2C[C@@]3(OC(C)=O)[C@@]4(C)[C@@H](OC(C)=O)CC=C(C)[C@@H]4[C@@]3(O)[C@]3(O2)[C@@H](C)C(=O)O[C@H]3[C@H]1Cl` [EXCAVATOLIDE A], for which the EC50 in test [1] was 2.5 mg/L (≈ 5.2 µM); in test [2] it was above 50 mg/L; in test [3], above 50 mg/L; in test [4], 21.9 mg/L (≈ 45.5 µM).
